Results reported in the NIST ThermoML archive (doi:10.1016/j.tca.2010.12.008).
Numbers after ± are expanded uncertainties.

Assay: molar heat capacity at constant pressure
Details: 101.33 kPa

## CC(C)(C)P(=O)(O)C(C)(C)C [di-tert-butylphosphinic acid]
2.277 K, Crystal 2
  molar heat capacity at constant pressure: 0.028 ± 0.002 J/K/mol
2.67 K, Crystal 2
  molar heat capacity at constant pressure: 0.056 ± 0.005 J/K/mol
3.092 K, Crystal 2
  molar heat capacity at constant pressure: 0.169 ± 0.01 J/K/mol
3.71 K, Crystal 2
  molar heat capacity at constant pressure: 0.338 ± 0.018 J/K/mol
4.497 K, Crystal 2
  molar heat capacity at constant pressure: 0.591 ± 0.03 J/K/mol
5.284 K, Crystal 2
  molar heat capacity at constant pressure: 0.929 ± 0.048 J/K/mol
5.987 K, Crystal 2
  molar heat capacity at constant pressure: 1.352 ± 0.069 J/K/mol
6.633 K, Crystal 2
  molar heat capacity at constant pressure: 1.83 ± 0.09 J/K/mol
7.223 K, Crystal 2
  molar heat capacity at constant pressure: 2.337 ± 0.12 J/K/mol
7.813 K, Crystal 2
  molar heat capacity at constant pressure: 2.872 ± 0.14 J/K/mol
8.404 K, Crystal 2
  molar heat capacity at constant pressure: 3.548 ± 0.18 J/K/mol
9.078 K, Crystal 2
  molar heat capacity at constant pressure: 4.337 ± 0.22 J/K/mol
9.808 K, Crystal 2
  molar heat capacity at constant pressure: 5.322 ± 0.27 J/K/mol
10.74 K, Crystal 2
  molar heat capacity at constant pressure: 6.589 ± 0.33 J/K/mol
11.66 K, Crystal 2
  molar heat capacity at constant pressure: 7.941 ± 0.4 J/K/mol
12.56 K, Crystal 2
  molar heat capacity at constant pressure: 9.405 ± 0.47 J/K/mol
13.52 K, Crystal 2
  molar heat capacity at constant pressure: 10.93 ± 0.55 J/K/mol
14.44 K, Crystal 2
  molar heat capacity at constant pressure: 12.42 ± 0.62 J/K/mol
15.34 K, Crystal 2
  molar heat capacity at constant pressure: 13.94 ± 0.7 J/K/mol
16.24 K, Crystal 2
  molar heat capacity at constant pressure: 15.46 ± 0.77 J/K/mol
17.17 K, Crystal 2
  molar heat capacity at constant pressure: 17.04 ± 0.85 J/K/mol
18.15 K, Crystal 2
  molar heat capacity at constant pressure: 18.7 ± 0.94 J/K/mol
19.22 K, Crystal 2
  molar heat capacity at constant pressure: 20.47 ± 1 J/K/mol
20.32 K, Crystal 2
  molar heat capacity at constant pressure: 22.27 ± 1.1 J/K/mol
21.3 K, Crystal 2
  molar heat capacity at constant pressure: 23.93 ± 1.2 J/K/mol
22.28 K, Crystal 2
  molar heat capacity at constant pressure: 25.54 ± 1.3 J/K/mol
23.29 K, Crystal 2
  molar heat capacity at constant pressure: 27.17 ± 1.4 J/K/mol
24.3 K, Crystal 2
  molar heat capacity at constant pressure: 28.84 ± 1.4 J/K/mol
25.37 K, Crystal 2
  molar heat capacity at constant pressure: 30.69 ± 1.5 J/K/mol
26.44 K, Crystal 2
  molar heat capacity at constant pressure: 32.05 ± 1.6 J/K/mol
27.48 K, Crystal 2
  molar heat capacity at constant pressure: 33.54 ± 1.7 J/K/mol
28.6 K, Crystal 2
  molar heat capacity at constant pressure: 35.23 ± 1.8 J/K/mol
29.67 K, Crystal 2
  molar heat capacity at constant pressure: 36.78 ± 1.8 J/K/mol
30.74 K, Crystal 2
  molar heat capacity at constant pressure: 38.47 ± 1.9 J/K/mol
31.78 K, Crystal 2
  molar heat capacity at constant pressure: 40.07 ± 2 J/K/mol
32.82 K, Crystal 2
  molar heat capacity at constant pressure: 41.87 ± 2.1 J/K/mol
34.73 K, Crystal 2
  molar heat capacity at constant pressure: 45.11 ± 2.3 J/K/mol
35.2 K, Crystal 2
  molar heat capacity at constant pressure: 46.01 ± 2.3 J/K/mol
35.88 K, Crystal 2
  molar heat capacity at constant pressure: 47.28 ± 2.4 J/K/mol
36.58 K, Crystal 2
  molar heat capacity at constant pressure: 48.41 ± 2.4 J/K/mol
37.37 K, Crystal 1
  molar heat capacity at constant pressure: 47.62 ± 2.4 J/K/mol
38.02 K, Crystal 1
  molar heat capacity at constant pressure: 45.28 ± 2.3 J/K/mol
38.77 K, Crystal 1
  molar heat capacity at constant pressure: 45.25 ± 2.3 J/K/mol
39.59 K, Crystal 1
  molar heat capacity at constant pressure: 45.81 ± 2.3 J/K/mol
40.38 K, Crystal 1
  molar heat capacity at constant pressure: 46.52 ± 2.3 J/K/mol
41.16 K, Crystal 1
  molar heat capacity at constant pressure: 47.25 ± 2.4 J/K/mol
41.95 K, Crystal 1
  molar heat capacity at constant pressure: 48.01 ± 2.4 J/K/mol
42.74 K, Crystal 1
  molar heat capacity at constant pressure: 48.77 ± 2.4 J/K/mol
43.55 K, Crystal 1
  molar heat capacity at constant pressure: 49.65 ± 2.5 J/K/mol
44.37 K, Crystal 1
  molar heat capacity at constant pressure: 50.52 ± 2.5 J/K/mol
45.18 K, Crystal 1
  molar heat capacity at constant pressure: 51.33 ± 2.6 J/K/mol
46 K, Crystal 1
  molar heat capacity at constant pressure: 52.18 ± 2.6 J/K/mol
46.84 K, Crystal 1
  molar heat capacity at constant pressure: 53.05 ± 2.7 J/K/mol
47.66 K, Crystal 1
  molar heat capacity at constant pressure: 53.9 ± 2.7 J/K/mol
48.47 K, Crystal 1
  molar heat capacity at constant pressure: 54.74 ± 2.7 J/K/mol
49.31 K, Crystal 1
  molar heat capacity at constant pressure: 55.53 ± 2.8 J/K/mol
50.1 K, Crystal 1
  molar heat capacity at constant pressure: 56.32 ± 2.8 J/K/mol
50.97 K, Crystal 1
  molar heat capacity at constant pressure: 57.08 ± 2.9 J/K/mol
51.81 K, Crystal 1
  molar heat capacity at constant pressure: 57.9 ± 2.9 J/K/mol
52.63 K, Crystal 1
  molar heat capacity at constant pressure: 58.8 ± 2.9 J/K/mol
53.44 K, Crystal 1
  molar heat capacity at constant pressure: 59.56 ± 3 J/K/mol
54.29 K, Crystal 1
  molar heat capacity at constant pressure: 60.43 ± 3 J/K/mol
55.1 K, Crystal 1
  molar heat capacity at constant pressure: 61.3 ± 3.1 J/K/mol
55.94 K, Crystal 1
  molar heat capacity at constant pressure: 62.17 ± 3.1 J/K/mol
56.79 K, Crystal 1
  molar heat capacity at constant pressure: 63.08 ± 3.2 J/K/mol
57.66 K, Crystal 1
  molar heat capacity at constant pressure: 63.98 ± 3.2 J/K/mol
58.67 K, Crystal 1
  molar heat capacity at constant pressure: 65.08 ± 3.3 J/K/mol
59.34 K, Crystal 1
  molar heat capacity at constant pressure: 65.81 ± 3.3 J/K/mol
60.19 K, Crystal 1
  molar heat capacity at constant pressure: 66.74 ± 3.3 J/K/mol
61 K, Crystal 1
  molar heat capacity at constant pressure: 67.64 ± 3.4 J/K/mol
61.65 K, Crystal 1
  molar heat capacity at constant pressure: 68.31 ± 3.4 J/K/mol
62.63 K, Crystal 1
  molar heat capacity at constant pressure: 69.41 ± 3.5 J/K/mol
63.11 K, Crystal 1
  molar heat capacity at constant pressure: 69.95 ± 3.5 J/K/mol
63.56 K, Crystal 1
  molar heat capacity at constant pressure: 70.45 ± 3.5 J/K/mol
64.57 K, Crystal 1
  molar heat capacity at constant pressure: 71.58 ± 3.6 J/K/mol
65.27 K, Crystal 1
  molar heat capacity at constant pressure: 72.4 ± 3.6 J/K/mol
66 K, Crystal 1
  molar heat capacity at constant pressure: 73.16 ± 3.7 J/K/mol
66.9 K, Crystal 1
  molar heat capacity at constant pressure: 74.2 ± 3.7 J/K/mol
67.41 K, Crystal 1
  molar heat capacity at constant pressure: 74.76 ± 3.7 J/K/mol
67.94 K, Crystal 1
  molar heat capacity at constant pressure: 75.35 ± 3.8 J/K/mol
68.9 K, Crystal 1
  molar heat capacity at constant pressure: 76.37 ± 3.8 J/K/mol
69.57 K, Crystal 1
  molar heat capacity at constant pressure: 77.21 ± 3.9 J/K/mol
70.28 K, Crystal 1
  molar heat capacity at constant pressure: 77.94 ± 3.9 J/K/mol
70.64 K, Crystal 1
  molar heat capacity at constant pressure: 78.42 ± 3.9 J/K/mol
71.23 K, Crystal 1
  molar heat capacity at constant pressure: 79.24 ± 4 J/K/mol
71.62 K, Crystal 1
  molar heat capacity at constant pressure: 79.66 ± 4 J/K/mol
81.51 K, Crystal 1
  molar heat capacity at constant pressure: 92.05 ± 4.6 J/K/mol
82.47 K, Crystal 1
  molar heat capacity at constant pressure: 93.11 ± 4.7 J/K/mol
83.42 K, Crystal 1
  molar heat capacity at constant pressure: 94.18 ± 4.7 J/K/mol
84.38 K, Crystal 1
  molar heat capacity at constant pressure: 95.24 ± 4.8 J/K/mol
85.33 K, Crystal 1
  molar heat capacity at constant pressure: 96.41 ± 4.8 J/K/mol
86.29 K, Crystal 1
  molar heat capacity at constant pressure: 97.48 ± 4.9 J/K/mol
87.35 K, Crystal 1
  molar heat capacity at constant pressure: 98.65 ± 4.9 J/K/mol
88.31 K, Crystal 1
  molar heat capacity at constant pressure: 99.82 ± 5 J/K/mol
89.26 K, Crystal 1
  molar heat capacity at constant pressure: 100.89 ± 5 J/K/mol
90.32 K, Crystal 1
  molar heat capacity at constant pressure: 102.06 ± 5.1 J/K/mol
91.28 K, Crystal 1
  molar heat capacity at constant pressure: 103.23 ± 5.2 J/K/mol
92.34 K, Crystal 1
  molar heat capacity at constant pressure: 104.4 ± 5.2 J/K/mol
93.3 K, Crystal 1
  molar heat capacity at constant pressure: 105.58 ± 5.3 J/K/mol
94.36 K, Crystal 1
  molar heat capacity at constant pressure: 106.75 ± 5.3 J/K/mol
95.31 K, Crystal 1
  molar heat capacity at constant pressure: 107.81 ± 5.4 J/K/mol
96.27 K, Crystal 1
  molar heat capacity at constant pressure: 109.09 ± 5.5 J/K/mol
97.33 K, Crystal 1
  molar heat capacity at constant pressure: 110.16 ± 5.5 J/K/mol
98.39 K, Crystal 1
  molar heat capacity at constant pressure: 111.33 ± 5.6 J/K/mol
99.34 K, Crystal 1
  molar heat capacity at constant pressure: 112.39 ± 5.6 J/K/mol
100.41 K, Crystal 1
  molar heat capacity at constant pressure: 113.56 ± 5.7 J/K/mol
101.47 K, Crystal 1
  molar heat capacity at constant pressure: 114.74 ± 5.7 J/K/mol
102.53 K, Crystal 1
  molar heat capacity at constant pressure: 115.8 ± 5.8 J/K/mol
103.59 K, Crystal 1
  molar heat capacity at constant pressure: 116.97 ± 5.8 J/K/mol
104.55 K, Crystal 1
  molar heat capacity at constant pressure: 118.04 ± 5.9 J/K/mol
105.71 K, Crystal 1
  molar heat capacity at constant pressure: 119.32 ± 6 J/K/mol
106.78 K, Crystal 1
  molar heat capacity at constant pressure: 120.49 ± 6 J/K/mol
107.84 K, Crystal 1
  molar heat capacity at constant pressure: 121.56 ± 6.1 J/K/mol
108.9 K, Crystal 1
  molar heat capacity at constant pressure: 122.73 ± 6.1 J/K/mol
